Results taken from patent US12391692B2, “Spiro ring-containing quinazoline compound” (WIGEN BIOMEDICINE TECHNOLOGY (SHANGHAI) CO., LTD., priority 2020, dated 2025).

How the values were obtained:
pERK level in H358 cells = assay: pERK and ERK protein content assay in H358 cells (ELISA); assay type: cell-based; settings: Homo sapiens, NCI-H358, pERK/ERK ratio vs DMSO group, compound 1 μM, 24 h, read-out: Inhibition rate (%)
Method: H358 cells were seeded in a 24-well plate. After one day of growth, a test compound (at a concentration of 1 μM) was added. After 24 h of action of the compound, the cells were lysed, and the cell lysate was transferred to a 96-well ELISA plate. The levels of pERK and ERK in the lysate were measured using an ELISA kit (abcam 176660). The ratio of pERK to ERK was calculated and compared with that of the DMSO group, and the percentage of inhibition of pERK activity by the compound was calculated.

H358 cells = assay: Antiproliferative activity against H358 cells (Cell Titer Glow, ultra-low attachment plate); assay type: cell-based; settings: Homo sapiens, NCI-H358, 72 h, three days after addition of compound
Method: 2500 H358 cells were seeded in a 96-well ultra-low attachment plate (corning, 7007). After one day of growth, a serially diluted compound (a maximum concentration of 5 μM, 5-fold dilution, a total of five doses) was added. Three days after the addition of the compound, Cell Titer Glow (Promega, G9681) was added to evaluate pellet growth, and the IC50 value was calculated.

| Structure (SMILES) | inhibition at 1 µM (pERK level in H358 cells) [%] | IC50 (H358 cells) [nM] |
| --- | --- | --- |
| C=CC(=O)N1CC2(CCN(c3nc(N4CCC(CC#N)(N5CCC5)CC4)nc4c(OCC(F)(F)F)c(-c5c(C)ccc6[nH]ncc56)c(C5CC5)cc34)CC2)C1 [Compound 58] | > 90 | < 300 |
| C=CC(=O)N1CC2(CCN(c3nc(N4CC5(CCCN5C5CC5)C4)nc4c(OCC(F)(F)F)c(-c5c(C)ccc6[nH]ncc56)c(C5CC5)cc34)CC2)C1 [Compound 120] | > 90 | < 300 |
| C=CC(=O)N1CC2(CCN(c3nc(N4CC(N5CC6(CCOCC6)C5)C4)nc4c(OCC(F)(F)F)c(-c5c(C)ccc6[nH]ncc56)c(C5CC5)cc34)CC2)C1 [Compound 33] | 50 to 90 | 300 to 1000 |
| C=CC(=O)N1CC2(CCN(c3nc(N4CC5(CCCN5CC)C4)nc4c(OCC(F)(F)F)c(-c5c(C)ccc6[nH]ncc56)c(C=C)cc34)CC2)C1 [Compound 132] | > 90 | < 300 |
| C=CC(=O)N1CC2(CCN(c3nc(N4CC(C)(CN5CCC5)C4)nc4c(OCC(F)(F)F)c(-c5c(C)ccc6[nH]ncc56)c(C5CC5)cc34)CC2)C1 [Compound 63] | > 90 | < 300 |
| C=CC(=O)N1CC2(CCN(c3nc(N4CC(N5CC6(CC6)C5)C4)nc4c(OCC(F)(F)F)c(-c5c(O)cccc5F)c(C5CC5)cc34)CC2)C1 [Compound 112] | > 90 | < 300 |
| C=CC(=O)N1CC2(CCN(c3nc(N4CC(N5CC6(CC6)C5)C4)nc4c(O[C@@H](C)C(F)(F)F)c(-c5c(C)ccc6[nH]ncc56)c(C5CC5)cc34)CC2)C1 [Compound 99] | > 90 | < 300 |
| C=CC(=O)N1CC2(CCN(c3nc(N4CC(N5CC6(CC6)C5)C4)nc4c(OCC(F)(F)F)c(-c5c(C)ccc6[nH]cnc56)c(C5CC5)cc34)CC2)C1 [Compound 107] | > 90 | < 300 |
| C=CC(=O)N1CC2(CCN(c3nc(N4CC(N5CC6(CC6)C5)C4)nc4c(OCC(F)(F)F)c(-c5c(C)c(C)cc6[nH]ncc56)c(C5CC5)cc34)CC2)C1 [Compound 105] | > 90 | < 300 |
| C=CC(=O)N1CC2(CCN(c3nc(N4CC(C(=O)N5CC(N(C)C)C5)C4)nc4c(OCC(F)(F)F)c(-c5c(C)ccc6[nH]ncc56)c(C5CC5)cc34)CC2)C1 [Compound 47] | > 90 | < 300 |
| C=CC(=O)N1CC2(CCN(c3nc(N4CC5(CCCN5CCOC)C4)nc4c(OCC(F)(F)F)c(-c5c(C)ccc6[nH]ncc56)c(C5CC5)cc34)CC2)C1 [Compound 74] | > 90 | < 300 |
| C=CC(=O)N1CC2(CCN(c3nc(N4CCOC5(CN(CCOC)C5)C4)nc4c(OCC(F)(F)F)c(-c5c(C)ccc6[nH]ncc56)c(C5CC5)cc34)CC2)C1 [Compound 84] | 50 to 90 | 300 to 1000 |
| C=CC(=O)N1CC2(CCN(c3nc(N4CC(n5ccnc5)C4)nc4c(OCC(F)(F)F)c(-c5c(C)ccc6[nH]ncc56)c(C5CC5)cc34)CC2)C1 [Compound 41] | 50 to 90 | 300 to 1000 |
| C=CC(=O)N1CC2(CCN(c3nc(N4CC(n5cccc5)C4)nc4c(OCC(F)(F)F)c(-c5c(C)ccc6[nH]ncc56)c(C5CC5)cc34)CC2)C1 [Compound 39] | 50 to 90 | 300 to 1000 |
| C=CC(=O)N1CC2(CCN(c3nc(N4CC(C)(CN(C)C)C4)nc4c(OCC(F)(F)F)c(-c5c(C)ccc6[nH]ncc56)c(C5CC5)cc34)CC2)C1 [Compound 62] | > 90 | < 300 |
| C=CC(=O)N1CC2(CCN(c3nc(N4CC(OC5CCC5)C4)nc4c(OCC(F)(F)F)c(-c5c(C)ccc6[nH]ncc56)c(C5CC5)cc34)CC2)C1 [Compound 13] | > 90 | < 300 |
| C=CC(=O)N1CC2(CCN(c3nc(N4CC(CN(C)C)C4)nc4c(OCC(F)(F)F)c(-c5c(C)ccc6[nH]ncc56)c(C5CC5)cc34)CC2)C1 [Compound 1, 1-(7-(6-cyclopropyl-2-(3-((dimethylamino)methyl)azetidin-1-yl)-7-(5-methyl-1H-indazol-4-yl)-8-(2,2,2-trifluoroethoxy)quinazolin-4-yl)-2,7-diazaspiro[3.5]non-2-yl)prop-2-en-1-one] | > 90 | < 300 |
| C=CC(=O)N1CC2(CCN(c3nc(N4CC(N5CC6(CCC6)C5)C4)nc4c(OCC(F)(F)F)c(-c5c(C)ccc6[nH]ncc56)c(C5CC5)cc34)CC2)C1 [Compound 29] | > 90 | < 300 |
| C=CC(=O)N1CC2(CCN(c3nc(N4CC(CC#N)(N5CCOCC5)C4)nc4c(OCC(F)(F)F)c(-c5c(C)ccc6[nH]ncc56)c(C5CC5)cc34)CC2)C1 [Compound 56] | > 90 | < 300 |
| C=CC(=O)N1CC2(CCN(c3nc(N4CC(OCC5COC5)C4)nc4c(OCC(F)(F)F)c(-c5c(C)ccc6[nH]ncc56)c(C5CC5)cc34)CC2)C1 [Compound 18] | > 90 | < 300 |

| Structure (SMILES) | inhibition at 1 µM (pERK level in H358 cells) [%] | IC50 (H358 cells) [nM] |
| --- | --- | --- |
| C=CC(=O)N1CC2(CCN(c3nc(N4CC(N5CC6(CC6)C5)C4)nc4c(OCC(F)(F)F)c(-c5c(C)ccc6cn[nH]c56)c(C5CC5)cc34)CC2)C1 [Compound 109] | > 90 | < 300 |
| C=CC(=O)N1CC2(CCN(c3nc(N4CC5(C4)CC(F)(F)CN5C)nc4c(OCC(F)(F)F)c(-c5c(C)ccc6[nH]ncc56)c(C5CC5)cc34)CC2)C1 [Compound 129] | > 90 | < 300 |
| C=CC(=O)N1CC2(CCN(c3nc(N4CC(N5CC6(CC6)C5)C4)nc4c(OCC(F)(F)F)c(-c5cc(O)cc6ccccc56)c(C5CC5)cc34)CC2)C1 [Compound 111] | > 90 | 300 to 1000 |
| C=CC(=O)N1CC2(CCN(c3nc(N4CC(S(=O)(=O)N5CCN(C)CC5)C4)nc4c(OCC(F)(F)F)c(-c5c(C)ccc6[nH]ncc56)c(C5CC5)cc34)CC2)C1 [Compound 49] | > 90 | < 300 |
| C=CC(=O)N1CC2(CCN(c3nc(N4CC(N5CC6(CC6)C5)C4)nc4c(OCC(F)(F)F)c(-c5c(F)ccc6[nH]cnc56)c(C5CC5)cc34)CC2)C1 [Compound 108] | > 90 | < 300 |
| C=CC(=O)N1CC2(CCN(c3nc(N4CC(n5cncn5)C4)nc4c(OCC(F)(F)F)c(-c5c(C)ccc6[nH]ncc56)c(C5CC5)cc34)CC2)C1 [Compound 42] | 50 to 90 | > 1000 |
| C=CC(=O)N1CC2(CCN(c3nc(N4CC(N(C)CCCO)C4)nc4c(OCC(F)(F)F)c(-c5c(C)ccc6[nH]ncc56)c(C5CC5)cc34)CC2)C1 [Compound 23] | > 90 | < 300 |
| C=CC(=O)N1CC2(CCN(c3nc(N4CC(COC5CC5)C4)nc4c(OCC(F)(F)F)c(-c5c(C)ccc6[nH]ncc56)c(C5CC5)cc34)CC2)C1 [Compound 10] | > 90 | < 300 |
| C=CC(=O)N1CC2(CCN(c3nc(O[C@H]4C[C@H](N5CCCC5)C4)nc4c(OCC(F)(F)F)c(-c5c(C)ccc6[nH]ncc56)c(C5CC5)cc34)CC2)C1 [Compound 90] | 50 to 90 | 300 to 1000 |
| C=CC(=O)N1CC2(CCN(c3nc(N4CC(CC#N)(N(C)C)C4)nc4c(OCC(F)(F)F)c(-c5c(C)ccc6[nH]ncc56)c(C5CC5)cc34)CC2)C1 [Compound 51] | > 90 | < 300 |
| C=CC(=O)N1CC2(CCN(c3nc(N4CC(CC#N)(N5CCCC5)C4)nc4c(OCC(F)(F)F)c(-c5c(C)ccc6[nH]ncc56)c(C5CC5)cc34)CC2)C1 [Compound 55] | > 90 | < 300 |
| C=CC(=O)N1CC2(CCN(c3nc(N4CC(N(C)CC#N)C4)nc4c(OCC(F)(F)F)c(-c5c(C)ccc6[nH]ncc56)c(C5CC5)cc34)CC2)C1 [Compound 20] | 50 to 90 | 300 to 1000 |
| C=CC(=O)N1CC2(CCN(c3nc(N4CC5(CCCN5CC)C4)nc4c(OCC(F)(F)F)c(-c5c(C)ccc6[nH]ncc56)c(C5CC5)cc34)CC2)C1 [Compound 116] | > 90 | < 300 |
| C=CC(=O)N1CC2(CCN(c3nc(N4CC(N5CC[S+]([O-])CC5)C4)nc4c(OCC(F)(F)F)c(-c5c(C)ccc6[nH]ncc56)c(C5CC5)cc34)CC2)C1 [Compound 26] | 50 to 90 | 300 to 1000 |
| C=CC(=O)N1CC2(CCN(c3nc(N4CC5(CCCN5C)C4)nc4c(OCC(F)(F)F)c(-c5c(C)ccc6[nH]ncc56)c(C=C)cc34)CC2)C1 [Compound 131] | > 90 | < 300 |
| C=CC(=O)N1CC2(CCN(c3nc(N4CC(n5cccn5)C4)nc4c(OCC(F)(F)F)c(-c5c(C)ccc6[nH]ncc56)c(C5CC5)cc34)CC2)C1 [Compound 40] | 50 to 90 | > 1000 |
| C=CC(=O)N1CC2(CCN(c3nc(N4CC(COC5CN(C)C5)C4)nc4c(OCC(F)(F)F)c(-c5c(C)ccc6[nH]ncc56)c(C5CC5)cc34)CC2)C1 [Compound 11] | > 90 | < 300 |
| C=CC(=O)N1CC2(CCN(c3nc(N4CCC(N5CC6(CC6)C5)CC4)nc4c(OCC(F)(F)F)c(-c5c(C)ccc6[nH]ncc56)c(C5CC5)cc34)CC2)C1 [Compound 38] | > 90 | 300 to 1000 |
| C=CC(=O)N1CC2(CCN(c3nc(N4CC(N5CC6(CC6)C5)C4)nc4c(OCC)c(-c5c(C)ccc6[nH]ncc56)c(C5CC5)cc34)CC2)C1 [Compound 97] | > 90 | < 300 |
| C=CC(=O)N1CC2(CCN(c3nc(N4CC(CN5CCCC5)C4)nc4c(OCC(F)(F)F)c(-c5c(C)ccc6[nH]ncc56)c(C5CC5)cc34)CC2)C1 [Compound 7] | > 90 | < 300 |
